Assay results taken from ChEMBL document CHEMBL4834472 (J Med Chem, 2021).
Active and inactive are the calls of the source. The rule behind the calls is not given here.

Legend:
CDK9/cyclin T1 = CDK9/cyclin T1 (Homo sapiens, UniProt P50750); assay: Inhibition of CDK9/cyclin T1 (unknown origin) in presence of [32P]gammaATP by image analyser; type: protein-complex assay
CDK2/Cyclin A2 = CDK2/Cyclin A2 (Homo sapiens, UniProt P24941); assay: Inhibition of CDK2/cyclin A2 (unknown origin) in presence of [32P]gammaATP by image analyser; type: protein-complex assay
MV4-11 [1] = assay: cells; conditions: Homo sapiens, MV4-11, 72 h
Description: Antiproliferative activity against human MV4-11 cells assessed as cell death measured after 72 hrs by resazurin dye based assay

BaF3 [2] = assay: Antiproliferative activity against mouse BaF3 cells assessed as cell death measured after 72 hrs by resazurin dye based assay; type: functional; conditions: BaF3, 72 h
U-937 = assay: Antiproliferative activity against human U-937 cells assessed as cell death measured after 72 hrs by resazurin dye based assay; type: functional; conditions: U-937, 72 h
BaF3 [3] = assay: Antiproliferative activity against mouse BaF3 cells harboring FLt3 ITD mutant assessed as cell death measured after 72 hrs by resazurin dye based assay; type: functional; conditions: BaF3, 72 h
[4] = target: T1, Receptor-type tyrosine-protein kinase FLT3 (Homo sapiens, UniProt P36888); assay: Inhibition of wild type FLT3 (unknown origin) using AGLT peptide substrate in presence of [32P]gammaATP by image analyser
T1 sequence (P36888 whole entry): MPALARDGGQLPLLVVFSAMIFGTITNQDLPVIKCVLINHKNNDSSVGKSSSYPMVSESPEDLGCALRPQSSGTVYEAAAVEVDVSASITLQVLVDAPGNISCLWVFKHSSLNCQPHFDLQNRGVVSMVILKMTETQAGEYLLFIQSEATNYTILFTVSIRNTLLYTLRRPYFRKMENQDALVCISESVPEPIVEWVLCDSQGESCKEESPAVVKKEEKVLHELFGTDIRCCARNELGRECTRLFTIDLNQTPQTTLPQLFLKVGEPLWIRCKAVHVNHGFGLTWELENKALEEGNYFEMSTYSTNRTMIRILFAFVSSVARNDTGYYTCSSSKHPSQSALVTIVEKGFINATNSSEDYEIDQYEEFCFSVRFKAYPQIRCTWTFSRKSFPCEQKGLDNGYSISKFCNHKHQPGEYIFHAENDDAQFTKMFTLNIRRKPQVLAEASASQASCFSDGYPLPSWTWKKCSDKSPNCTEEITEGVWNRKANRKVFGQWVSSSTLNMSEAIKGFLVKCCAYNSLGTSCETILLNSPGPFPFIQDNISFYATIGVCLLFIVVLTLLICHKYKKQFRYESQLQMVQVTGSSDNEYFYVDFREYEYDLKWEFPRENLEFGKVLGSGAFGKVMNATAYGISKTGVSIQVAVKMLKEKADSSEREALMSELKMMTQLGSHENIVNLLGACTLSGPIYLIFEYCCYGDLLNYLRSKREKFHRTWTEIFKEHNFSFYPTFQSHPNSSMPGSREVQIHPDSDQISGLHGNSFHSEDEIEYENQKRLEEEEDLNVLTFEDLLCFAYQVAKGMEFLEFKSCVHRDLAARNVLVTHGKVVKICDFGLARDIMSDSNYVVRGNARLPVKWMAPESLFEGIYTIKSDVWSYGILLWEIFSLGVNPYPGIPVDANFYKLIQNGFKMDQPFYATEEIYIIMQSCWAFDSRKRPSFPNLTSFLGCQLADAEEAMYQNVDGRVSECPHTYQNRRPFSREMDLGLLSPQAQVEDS

[5] = target: Receptor-type tyrosine-protein kinase FLT3 (Homo sapiens, UniProt P36888, ITD)
THP-1 = assay: Antiproliferative activity against human THP-1 cells assessed as cell death measured after 72 hrs by resazurin dye based assay; type: functional; conditions: THP-1, 72 h
CCRF-CEM = assay: Antiproliferative activity against human CCRF-CEM cells assessed as cell death measured after 72 hrs by resazurin dye based assay; type: functional
[6] = target: Cyclin-dependent kinase 2/cyclin E1 (Homo sapiens, UniProt P24941); assay: Inhibition of CDK2/cyclin E1 (unknown origin) in presence of [32P]gammaATP by image analyser; type: protein-complex assay
[7] = target: Cyclin-dependent kinase 4/cyclin D1 (Homo sapiens, UniProt P11802); assay: Inhibition of CDK4/cyclin D1 (unknown origin) in presence of [32P]gammaATP by image analyser; type: protein-complex assay
Sequence of Cyclin-dependent kinase 4/cyclin D1 (P11802 whole entry): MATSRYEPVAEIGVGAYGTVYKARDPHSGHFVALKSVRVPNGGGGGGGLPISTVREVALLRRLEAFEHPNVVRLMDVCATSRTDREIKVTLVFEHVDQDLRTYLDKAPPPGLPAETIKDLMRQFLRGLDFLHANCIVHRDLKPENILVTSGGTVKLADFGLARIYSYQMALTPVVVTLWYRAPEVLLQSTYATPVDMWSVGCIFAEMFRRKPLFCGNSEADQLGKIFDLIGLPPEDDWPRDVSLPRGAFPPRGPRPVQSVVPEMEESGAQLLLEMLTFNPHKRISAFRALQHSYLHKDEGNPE
Sequence of Cyclin-dependent kinase 4/cyclin D1 (P24385 whole entry, further chain): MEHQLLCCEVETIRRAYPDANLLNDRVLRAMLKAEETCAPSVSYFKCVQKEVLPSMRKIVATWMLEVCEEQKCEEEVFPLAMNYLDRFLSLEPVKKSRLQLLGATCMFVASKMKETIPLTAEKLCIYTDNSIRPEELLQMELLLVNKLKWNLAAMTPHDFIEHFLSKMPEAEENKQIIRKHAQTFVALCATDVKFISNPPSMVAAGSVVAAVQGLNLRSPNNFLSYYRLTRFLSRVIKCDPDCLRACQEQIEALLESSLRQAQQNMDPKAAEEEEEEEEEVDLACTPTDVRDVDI

CDK2/Cyclin A1 = CDK2/Cyclin A1 (Homo sapiens, UniProt P24941); type: protein-complex assay
Description: Inhibition of CDK2/Cyclin A1 (unknown origin) at 1 uM using histone H1 as substrate preincubated for 20 mins followed by 33P-ATP addition and measured after 2 hrs by filter binding method

[8] = target: Cyclin-dependent kinase 1/cyclin B1 (Homo sapiens, UniProt P06493); assay: Inhibition of CDK1/cyclin B1 (unknown origin) in presence of [32P]gammaATP by image analyser; type: protein-complex assay
Sequence of Cyclin-dependent kinase 1/cyclin B1 (P06493 whole entry): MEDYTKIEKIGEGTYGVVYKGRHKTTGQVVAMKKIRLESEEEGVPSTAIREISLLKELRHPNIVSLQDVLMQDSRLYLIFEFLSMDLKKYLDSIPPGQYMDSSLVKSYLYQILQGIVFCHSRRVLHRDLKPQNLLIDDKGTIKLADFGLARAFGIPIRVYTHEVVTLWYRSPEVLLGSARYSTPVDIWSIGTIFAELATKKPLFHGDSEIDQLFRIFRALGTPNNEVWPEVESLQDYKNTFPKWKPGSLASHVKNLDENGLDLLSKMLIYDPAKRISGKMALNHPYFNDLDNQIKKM
Sequence of Cyclin-dependent kinase 1/cyclin B1 (P14635 whole entry, further chain): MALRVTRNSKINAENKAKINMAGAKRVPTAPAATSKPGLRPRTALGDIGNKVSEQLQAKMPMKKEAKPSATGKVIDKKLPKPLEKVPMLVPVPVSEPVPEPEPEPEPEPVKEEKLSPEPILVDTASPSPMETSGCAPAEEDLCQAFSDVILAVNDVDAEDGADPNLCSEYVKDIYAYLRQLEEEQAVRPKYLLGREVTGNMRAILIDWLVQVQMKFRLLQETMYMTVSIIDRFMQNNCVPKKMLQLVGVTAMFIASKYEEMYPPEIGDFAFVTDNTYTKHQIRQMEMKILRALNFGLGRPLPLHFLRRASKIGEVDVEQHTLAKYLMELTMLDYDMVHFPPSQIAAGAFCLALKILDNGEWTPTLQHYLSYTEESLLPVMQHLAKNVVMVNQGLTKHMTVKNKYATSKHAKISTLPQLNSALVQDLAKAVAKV

SEM cells = assay: Antiproliferative activity against human SEM cells assessed as cell death measured after 72 hrs by resazurin dye based assay; type: functional
MOLM-14 [9] = assay: Antiproliferative activity against human MOLM-14 cells harboring D835Y mutant assessed as cell death measured after 72 hrs by resazurin dye based assay; type: functional; conditions: MOLM-14, 72 h
MOLM-14 [10] = assay: Antiproliferative activity against human MOLM-14 cells assessed as cell death measured after 72 hrs by resazurin dye based assay; type: functional; conditions: MOLM-14, 72 h
K562 = assay: cells; conditions: Homo sapiens, K562, 72 h
Description: Antiproliferative activity against human K562 cells assessed as cell death measured after 72 hrs by resazurin dye based assay

MOLM-13 = assay: Antiproliferative activity against human MOLM-13 cells assessed as cell death measured after 72 hrs by resazurin dye based assay; type: functional; conditions: MOLM-13, 72 h
MOLM-14 [11] = assay: Antiproliferative activity against human MOLM-14 cells harboring F691L mutant assessed as cell death measured after 72 hrs by resazurin dye based assay; type: functional; conditions: MOLM-14, 72 h
MV4-11 [12] = assay: Induction of apoptosis in human MV4-11 cells assessed as caspase 7 activation using fluorescent substrate Ac-DEVD-AMC at 100 nM incubated for 24 hrs by Western blot analysis; type: functional, cell-based
[13] = target: Receptor-type tyrosine-protein kinase FLT3 (Homo sapiens) (UniProt P36888); assay: Inhibition of FLT3 in human MV4-11 cells assessed as ERK1/2 phosphorylation at 20 to 100 nM incubated for 1 hrs by Western blot analysis; type: cell-based; conditions: dose 20-100 nM
[14] = target: Receptor-type tyrosine-protein kinase FLT3 (Homo sapiens) (UniProt P36888); assay: Inhibition of FLT3 in human MV4-11 cells assessed as STAT5 phosphorylation at Y694 at 20 to 100 nM incubated for 1 hrs by Western blot analysis; type: cell-based; conditions: dose 20-100 nM
[15] = target: Receptor-type tyrosine-protein kinase FLT3 (Homo sapiens) (UniProt P36888); assay: Inhibition of FLT3 autophosphorylation in human MV4-11 cells at 20 to 100 nM incubated for 1 hrs by Western blot analysis; type: cell-based; conditions: dose 20-100 nM
MV4-11 [16] = assay: Induction of apoptosis in human MV4-11 cells assessed as increase in cleaved PARP1 level at 100 nM incubated for 24 hrs by Western blot analysis; type: functional, cell-based
MV4-11 [17] = assay: Induction of apoptosis in human MV4-11 cells assessed as effect on Bcl2 level at 100 nM incubated for 24 hrs by Western blot analysis; type: functional, cell-based
MV4-11 [18] = assay: Induction of apoptosis in human MV4-11 cells assessed as caspase 3 activation using fluorescent substrate Ac-DEVD-AMC at 100 nM incubated for 24 hrs by Western blot analysis; type: functional, cell-based
MV4-11 [19] = assay: Induction of apoptosis in human MV4-11 cells assessed as decrease in MCL1 level at 100 nM incubated for 24 hrs by Western blot analysis; type: functional, cell-based

Sequence of CDK9/cyclin T1 (O60563 whole entry): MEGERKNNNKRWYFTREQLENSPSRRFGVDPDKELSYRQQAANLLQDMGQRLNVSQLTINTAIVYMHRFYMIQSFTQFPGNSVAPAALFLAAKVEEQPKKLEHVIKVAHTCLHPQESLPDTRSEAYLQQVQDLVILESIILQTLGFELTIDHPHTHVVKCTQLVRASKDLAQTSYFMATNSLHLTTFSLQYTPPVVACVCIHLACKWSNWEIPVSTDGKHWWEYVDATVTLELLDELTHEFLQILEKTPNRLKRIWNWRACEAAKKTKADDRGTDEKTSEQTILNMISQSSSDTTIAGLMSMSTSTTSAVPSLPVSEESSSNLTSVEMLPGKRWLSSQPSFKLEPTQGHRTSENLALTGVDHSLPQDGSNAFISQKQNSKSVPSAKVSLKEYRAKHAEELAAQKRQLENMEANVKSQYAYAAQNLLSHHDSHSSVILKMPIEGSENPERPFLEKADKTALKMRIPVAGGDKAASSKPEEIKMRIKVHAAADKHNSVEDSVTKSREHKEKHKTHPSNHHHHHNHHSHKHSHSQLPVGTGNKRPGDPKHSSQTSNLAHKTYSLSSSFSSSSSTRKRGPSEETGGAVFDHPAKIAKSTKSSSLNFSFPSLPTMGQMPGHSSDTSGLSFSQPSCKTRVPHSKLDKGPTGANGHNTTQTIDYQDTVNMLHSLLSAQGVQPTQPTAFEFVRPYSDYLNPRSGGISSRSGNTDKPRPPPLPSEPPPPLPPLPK
Sequence of CDK9/cyclin T1 (P50750 whole entry): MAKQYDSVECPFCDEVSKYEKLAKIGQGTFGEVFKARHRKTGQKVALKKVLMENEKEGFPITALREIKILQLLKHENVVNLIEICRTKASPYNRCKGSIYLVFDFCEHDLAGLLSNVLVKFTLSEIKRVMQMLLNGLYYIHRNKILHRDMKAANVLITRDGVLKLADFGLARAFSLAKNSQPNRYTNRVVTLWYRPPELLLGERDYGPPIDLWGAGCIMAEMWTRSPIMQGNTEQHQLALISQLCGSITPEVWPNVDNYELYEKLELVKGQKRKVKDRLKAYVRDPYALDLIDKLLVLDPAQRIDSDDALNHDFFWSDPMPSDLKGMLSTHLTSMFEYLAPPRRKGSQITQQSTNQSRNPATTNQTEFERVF

SMILES: Fc1cc2[nH]ncc2c2c3c(c(-c4cn[nH]c4)nc12)CCCC3
- IC50 (CDK9/cyclin T1): 196 nM
- IC50 (CDK2/Cyclin A2): 39 nM
- IC50 (MV4-11 [1]): 22 nM
- IC50 (BaF3 [2]): 15100 nM
- IC50 (U-937): 3170 nM
- IC50 (BaF3 [3]): 814 nM
- IC50 [4]: 21 nM
- IC50 [5]: 43 nM
- IC50 (THP-1): 1900 nM
- IC50 (CCRF-CEM): 5480 nM
- IC50 [6]: 55 nM
- IC50 [7]: > 1000 nM
- IC50 (CDK2/Cyclin A1): 39 nM
- IC50 [8]: 119 nM
- IC50 (SEM cells): 1050 nM
- IC50 (MOLM-14 [9]): 46 nM
- IC50 (MOLM-14 [10]): 79 nM
- IC50 (K562): 3280 nM
- IC50 (MOLM-13): 49 nM
- IC50 (MOLM-14 [11]): 50 nM

SMILES: OCc1n[nH]c2ccc3nc(-c4c[nH]nc4C(F)(F)F)c4c(c3c12)CCCC4
- IC50 (CDK9/cyclin T1): > 1000 nM
- IC50 (CDK2/Cyclin A2): 141 nM
- IC50 (MV4-11 [1]): 30 nM
- IC50 (BaF3 [2]): 16100 nM
- IC50 (U-937): 4820 nM
- IC50 (BaF3 [3]): 124 nM
- IC50 [4]: 32 nM
- Activity (MV4-11 [12]): Active
- IC50 [5]: 3 nM
- IC50 (THP-1): 16900 nM
- IC50 (CCRF-CEM): 5210 nM
- IC50 [6]: 102 nM
- IC50 [7]: > 1000 nM
- inhibition [13]: inactive
- IC50 (CDK2/Cyclin A1): 141 nM
- inhibition [14]: Active
- IC50 [8]: 203 nM
- inhibition [15]: Active
- IC50 (SEM cells): 437 nM
- Activity (MV4-11 [16]): Active
- IC50 (MOLM-14 [9]): 16 nM
- IC50 (MOLM-14 [10]): 36 nM
- IC50 (K562): 9720 nM
- Activity (MV4-11 [17]): Active
- IC50 (MOLM-13): 18 nM
- Activity (MV4-11 [18]): Active
- IC50 (MOLM-14 [11]): 91 nM
- Activity (MV4-11 [19]): Active

SMILES: Fc1cc2[nH]ncc2c2c3c(c(-c4c[nH]nc4C(F)(F)F)nc12)C1CCC3C1 (stereo unspecified)
- IC50 (CDK9/cyclin T1): 980 nM
- IC50 (CDK2/Cyclin A2): 49 nM
- IC50 (MV4-11 [1]): 49 nM
- IC50 (BaF3 [2]): 5820 nM
- IC50 (U-937): 2240 nM
- IC50 (BaF3 [3]): 35 nM
- IC50 [4]: 28 nM
- Activity (MV4-11 [12]): Active
- IC50 [5]: 16 nM
- IC50 (THP-1): 3150 nM
- IC50 (CCRF-CEM): 8120 nM
- IC50 [6]: 31 nM
- IC50 [7]: > 1000 nM
- inhibition [13]: inactive
- IC50 (CDK2/Cyclin A1): 49 nM
- inhibition [14]: Active
- IC50 [8]: 72 nM
- inhibition [15]: Active
- IC50 (SEM cells): 150 nM
- Activity (MV4-11 [16]): Active
- IC50 (MOLM-14 [9]): 13 nM
- IC50 (MOLM-14 [10]): 24 nM
- IC50 (K562): 7590 nM
- Activity (MV4-11 [17]): Active
- IC50 (MOLM-13): 6 nM
- Activity (MV4-11 [18]): Active
- IC50 (MOLM-14 [11]): 65 nM
- Activity (MV4-11 [19]): Active
